In assay [1] the test system is LPS-induced NO production in RAW264.7 cells. The assay is described as follows: Anti-inflammatory assay: inhibition of LPS-induced NO production. The assay is classed as cell-based.
Assay [2] concerns the target T1, MAO-B (Homo sapiens, UniProt P27338).
T1 sequence (P27338 1-520): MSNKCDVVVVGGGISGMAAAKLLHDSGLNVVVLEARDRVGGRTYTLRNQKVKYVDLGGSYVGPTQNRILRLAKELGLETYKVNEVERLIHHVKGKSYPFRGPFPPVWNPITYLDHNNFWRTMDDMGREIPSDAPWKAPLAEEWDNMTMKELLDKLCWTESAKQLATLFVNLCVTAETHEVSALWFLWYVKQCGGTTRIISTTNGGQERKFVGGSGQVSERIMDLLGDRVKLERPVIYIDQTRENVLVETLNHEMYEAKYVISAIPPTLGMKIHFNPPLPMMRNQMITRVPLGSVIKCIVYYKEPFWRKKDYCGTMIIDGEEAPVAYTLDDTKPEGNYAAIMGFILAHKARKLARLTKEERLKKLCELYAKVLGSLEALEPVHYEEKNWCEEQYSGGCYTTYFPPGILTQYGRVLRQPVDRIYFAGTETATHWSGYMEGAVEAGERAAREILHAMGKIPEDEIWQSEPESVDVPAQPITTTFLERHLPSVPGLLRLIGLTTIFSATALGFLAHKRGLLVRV
Description: biochemical.

In a further assay the test system is α-glucosidase. The assay is described as follows: α-Glucosidase inhibition assay (4-NPGP). It counts as biochemical. As for the experimental part: An enzyme inhibitor screening model was chosen using 4-nitro-phenol-α-D-glucopyranoside (4-NPGP) and slightly modified. Briefly, the test compound (50 μM), α-glucosidase solution (0.025 U/mL), phosphate buffer (pH 6.9), and (4-NPGP) (1 μM) were incubated in 96-well plates at 37 °C for 50 min. […] Quercetin was selected as the positive control. All of the reactions were repeated three times.

For assay [3], the system named is Escherichia coli (ATCC25922). The assay is described as follows: Antimicrobial assay (broth dilution and Oxford cup method). The assay is classed as cell-based. The settings on record: 100 μM. The source says: (§1) The broth dilution method and Oxford cup method were used to detect antimicrobial activity against reference strains, including Salmonella enterica subsp. enterica (ATCC14028), Staphylococcus aureus subsp. aureus (ATCC29213), Escherichia coli (ATCC25922), Pseudomonas aeruginosa (ATCC27853), and Candida albicans (ATCC10231). Ceftazidime and penicillin G sodium and amphotericin B served as an antibacterial and antifungal positive control, respectively.
(Dilution methods test growth across graded concentrations, often in twofold steps.)

The test system of assay [4] is Candida albicans (ATCC10231). Described as above. The assay is classed as cell-based. The settings on record: 100 μM.
Excerpt: as §1

Assay [5] concerns Pseudomonas aeruginosa (ATCC27853). The description is as above. It counts as cell-based. The settings on record: 100 μM.
Excerpt: as §1

A further assay deals with T2, MAO-A (Homo sapiens, UniProt P21397).
T2 sequence (P21397 1-527): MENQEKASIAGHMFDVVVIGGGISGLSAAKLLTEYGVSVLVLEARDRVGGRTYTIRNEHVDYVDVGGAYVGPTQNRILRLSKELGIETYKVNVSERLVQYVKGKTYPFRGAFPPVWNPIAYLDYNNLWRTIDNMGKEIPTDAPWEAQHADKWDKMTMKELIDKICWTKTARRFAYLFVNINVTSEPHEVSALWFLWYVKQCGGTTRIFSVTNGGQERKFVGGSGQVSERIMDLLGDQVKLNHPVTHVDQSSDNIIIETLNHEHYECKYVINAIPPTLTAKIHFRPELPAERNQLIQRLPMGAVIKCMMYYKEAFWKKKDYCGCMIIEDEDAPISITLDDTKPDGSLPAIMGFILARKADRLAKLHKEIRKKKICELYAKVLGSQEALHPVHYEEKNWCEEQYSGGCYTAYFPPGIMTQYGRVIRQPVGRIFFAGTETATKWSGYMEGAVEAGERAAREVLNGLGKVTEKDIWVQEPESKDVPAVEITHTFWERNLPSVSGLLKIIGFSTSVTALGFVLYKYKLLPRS
The assay is described as follows: biochemical. The settings on record: mean ± S.E.M. from three experiments.

The subject of assay [6] is Salmonella enterica (ATCC14028). The assay is described as follows: Antimicrobial assay (broth dilution and Oxford cup method). The assay is classed as cell-based, Salmonella enterica subsp. enterica. The settings on record: 100 μM.
Excerpt: as §1

In assay [7] the test system is Staphylococcus aureus (ATCC29213). The description is as above. The assay is classed as cell-based, Staphylococcus aureus subsp. aureus. The settings on record: 100 μM.
Excerpt: as §1

Assay [8] has as its system acetylcholinesterase (AChE). The settings on record: 50 μM. The protocol:
(§2) S-Acetylthiocholine iodide, S-butyrylthiocholineiodide, 5,5′-dithio-bis-(2-nitrobenzoic) acid (DTNB, Ellman’s reagent), acetylcholinesterase and butyrylcholinesterase derived from human erythrocytes were purchased from Sigma Chemical (St. Louis, MO, USA). The compounds were dissolved in DMSO. The reaction mixture (totally 200 μL) containing phosphate buffer (pH 8.0), test compound (50 μM), and acetyl cholinesterase (0.02 U/mL) or butyrylcholinesterase (0.016 U/mL), was incubated for 20 min (37 °C). […] All of the reactions were performed in triplicate. The percentage inhibition was calculated as follows: % inhibition = (E − S)/E × 100 (E is the activity of the enzyme without test compound, and S is the activity of the enzyme with test compound).

The test system of assay [9] is T3, butyrylcholinesterase (BuChE).
T3 construct: acetylcholinesterase and butyrylcholinesterase derived from human erythrocytes; purchased Sigma Chemical (St. Louis, MO, USA); host or cells: human erythrocytes (so in the source)
The assay is described as follows: Butyrylcholinesterase inhibitory activity (Ellman's method). It counts as biochemical, human. The settings on record: 50 μM. As for the experimental part: as §2

The target of assay [10] is T1, MAO-B. The settings on record: previous studies of the authors; read-out: IC50 against MAO-B; cited from earlier work.

Read-outs that look alike come from different tables or passages of the source.

In general, IC50 refers to the midpoint of a concentration-inhibition curve. Turning to `C=C(C)[C@H](O)[C@@H](OCC)c1c(OC)ccc(/C=C/C(=O)O[C@H](Cc2c(OC)ccc3ccc(=O)oc23)C(C)(C)O)c1O` [Compound 1, (E)-(R)-3-hydroxy-1-(7-methoxy-2-oxo-2H-chromen-8-yl)-3-methylbutan-2-yl·3-(3-((1S, 2S)-1-ethoxy-2-hydroxy-3-methylbut-3-en-1-yl)-2-hydroxy-4-methoxyphenyl)acrylate], the “inhibition against LPS-induced NO production” value in assay [1] is 34.59%. Besides, on MAO-B [2], the “SI: MAO-B selectivity index = IC50 (MAO-A)/IC50 (MAO-B)” value is reported as 172. In addition, the 50% inhibitory concentration (IC50) against MAO-B [2] (mean ± S.E.M. from three experiments) stood at 153 ± 1.58 nM; against MAO-A, 26300 ± 1030 nM. For the same molecule, the “α-glucosidase percentage of inhibition” value in the assay on α-glucosidase (50 μM) is “less than 50%”. Moreover, the “inhibitory effect against Escherichia coli (ATCC25922)” value in assay [3] is “did not lead to a significant inhibitory effect”. Moreover, in assay [4], the “inhibitory effect against Candida albicans (ATCC10231)” value is “did not lead to a significant inhibitory effect”. Besides, the “inhibitory effect against Pseudomonas aeruginosa (ATCC27853)” value in assay [5] was “did not lead to a significant inhibitory effect”. Moreover, the “inhibitory effect against Salmonella enterica (ATCC14028)” value in assay [6] is “did not lead to a significant inhibitory effect”. Further, the “inhibitory effect against Staphylococcus aureus (ATCC29213)” value in [7] is listed as “did not lead to a significant inhibitory effect”. For the same molecule, the AChE inhibitory activity result in assay [8] is on record as “did not show any inhibitory activity”. Also, the BuChE inhibitory activity result in [9] is reported as “did not show any inhibitory activity”.
`[H]/N=C(/NC)NCCC[C@H](N)C(=O)O` [L-NMMA, NG-monomethyl-L-arginine, reference compound]: the “inhibition against LPS-induced NO production” value in [1] came to 56.13%.
With `COc1c(OC/C=C(\C)C[C@@H]2C=C(CCC(N)=O)C(=O)O2)ccc2ccc(=O)oc12` [anisucoumaramide], on MAO-B [10], the IC50 was 143.7 ± 0.9 nM.
For the molecule `O=c1c(O)c(-c2ccc(O)c(O)c2)oc2cc(O)cc(O)c12` [quercetin, reference compound], in the assay with α-glucosidase (concentration not given), the “α-glucosidase inhibition (positive control)” value turned out to be 53.17%.
